{
  "source": "patent US6969706B1",
  "about": "“Preserved pharmaceutical compositions comprising cyclodextrins” (Allergan, Inc., priority 2004, dated 2005)",
  "origin": "cited, not measured here",
  "tested_on": "a number of pathogens",
  "conditions": "HPβCD solutions; reported by Loftsson et al. 1992",
  "data": [
    {"compound": "COC(=O)c1ccc(O)cc1", "note": "[methylparaben]", "values": [
      {"measurement": "preservative activity in the presence of 2-hydroxypropyl-β-cyclodextrin", "value": "significantly reduced preservative activity"}
    ]},
    {"compound": "CCCOC(=O)c1ccc(O)cc1", "note": "[propylparaben]", "values": [
      {"measurement": "preservative activity in the presence of 2-hydroxypropyl-β-cyclodextrin", "value": "significantly reduced preservative activity"}
    ]},
    {"compound": "N=C(NCCCCCCNC(=N)NC(=N)Nc1ccc(Cl)cc1)NC(=N)Nc1ccc(Cl)cc1.O=C(O)[C@H](O)[C@@H](O)[C@H](O)[C@H](O)CO.O=C(O)[C@H](O)[C@@H](O)[C@H](O)[C@H](O)CO", "note": "[chlorhexidine gluconate]", "values": [
      {"measurement": "preservative activity in the presence of 2-hydroxypropyl-β-cyclodextrin", "value": "did possess preservative activity"}
    ]},
    {"compound": "benzalkonium chloride", "values": [
      {"measurement": "preservative activity in the presence of 2-hydroxypropyl-β-cyclodextrin", "value": "did possess preservative activity"}
    ]}
  ]
}
